Laboratory results: patent US20230277582A1, “TREATMENT OF PRIMARY AND/OR SECONDARY LUNG TUMORS USING GASEOUS NITRIC OXIDE INHALATION” (Beyond Air, Inc., priority 2020, published 2023)
Like-named read-outs stand apart in the source and are kept apart here.

Tests used:
healthy rats = assay: Safety study of intermittent NO inhalation in healthy rats; assay type: in vivo, rat; settings: 250-400 ppm NO, 12 days
Protocol: (§1) The effect of intermittent inhalation of NO at a concentration of 250-400 ppm was tested for 30 days in healthy dogs and for 12 days in healthy rats.

CT26 colon cancer cells = assay: In vitro NO treatment, cell viability by XTT assay, CT26; assay type: cell-based, mouse
Protocol: (§2) 10,000-20,000 cells from a cancer cell line were plated onto a 96-well plate. After an overnight incubation at 37° C. and 5% CO2, the cell culture medium was removed, and the plate was placed inside an exposure chamber made of acrylic glass, which was closed and sealed with paraffin wax tape. A gas delivery line was inserted from the top of the chamber. NO supplied from 800 ppm NO cylinders, as well as air and oxygen, were delivered to the chamber at a gas flow rate of 1 liter per minute. NO was diluted to the indicated concentration and the final oxygen concentration inside the chamber was adjusted to about 21%, to avoid cell death due to lack of oxygen. Gas exposure lasted for the indicated time period, for one to seven exposure cycles. Gas exchange during this time was permitted via an outlet hole located close to the bottom of the chamber. Cancer cells exposed to air served as a control group. Cell viability was determined using an XTT (2,3-bis-(2-methoxy-4-nitro-5-sulfophenyl)-2H-tetrazolium-5-carboxanilide) assay, whereby conversion of the XTT by viable cells to the corresponding formazan dye was quantified by spectrophotometry.
CT26 colon cancer cells (a mouse colon cancer line) were grown in 100 μl RPMI (Roswell Park Memorial Institute medium)-based tissue culture medium, supplemented with 1% streptomycin-penicillin and 10% fetal bovine serum, and plated 1 day before exposure to NO in 10 ml RPMI-based tissue culture medium; and then exposed to 400 ppm NO for 1 hour, or to 200 ppm NO for one or more cycles of 15 minutes (separated by 30 minutes of rest at 37° C.), using the procedures described hereinabove. Immediately after each exposure, 100 μl of the abovementioned supplemented RPMI-based tissue culture medium was added to each well and plated were stored at 37° C. and 5% CO2.
CT26 colon cancer cells were exposed to 1 μM of the chemotherapeutic agent 5-fluorouracil (5FU), in addition to 200 ppm NO for 30 minutes, using the procedures described hereinabove, except that after overnight incubation at 37° C. and 5% CO2, the 5FU was added to the cell culture medium, and the cells were subjected to a second overnight incubation prior to being placed within the exposure chamber, as described therein.
In another experiment, CT26 cells were exposed to 0.5-50 μM 5FU and 4 cycles of 200 ppm NO for 10 minutes (separated by 30 minutes of rest at 37° C.), using the procedures described hereinabove, except that the 5FU was added immediately after the last exposure to NO (or air), followed by incubation for about 24 hours.

S. aureus = settings: 200 ppm gNO; cited from earlier work
[1] = test system: human fibroblast, keratinocyte, endothelial, monocyte and macrophage cells; settings: 200 ppm gNO; cited from earlier work
LLC1 lung cancer cells = assay: In vitro NO treatment, cell viability by XTT assay, LLC1; assay type: cell-based; settings: Mus musculus, read-out: LLC1 cells not viable
Protocol: as §2
Furthermore, LLC1 lung cancer cells (a mouse lung cancer line) were exposed to 200 ppm NO for 15 or 30 minutes, using the procedures described hereinabove.

healthy dogs = assay: Safety study of intermittent NO inhalation in healthy dogs; assay type: in vivo, dog; settings: 250-400 ppm NO, 30 days
Protocol: as §1

[N]=O [NO, nitric oxide]
macroscopic or microscopic effect of NO inhalation (healthy rats): No macroscopic or microscopic effect | CT26 cell viability (CT26 colon cancer cells; 400 ppm NO for 1 hour (FIG. 1)): not viable | cytotoxicity at 200 ppm (CT26 colon cancer cells; Mus musculus, CT26, 0.5 h, read-out: reduction of CT26 cell viability): 51% | viability at 200 ppm (CT26 colon cancer cells; Mus musculus, CT26, read-out: CT26 cell viability (decreased to)): ~40% | CT26 cell viability (CT26 colon cancer cells; seven cycles of 15 minutes, 200 ppm NO, compared to four cycles (FIG. 2C)): did not produce an additional reduction in viability | CT26 cell viability (CT26 colon cancer cells; single 15 minute exposure to 200 ppm NO (FIG. 2A)): little effect | S. aureus burden in rabbit wound model (S. aureus): reduced S. aureus burden | cytotoxicity to human cells in culture [1]: without being cytotoxic | cytotoxicity at 200 ppm (LLC1 lung cancer cells; LLC1, 0.25 h, 200 ppm NO for 15 minutes (FIG. 3)): 41% | cytotoxicity at 200 ppm (LLC1 lung cancer cells; LLC1, 0.5 h, 200 ppm NO for 30 minutes (FIG. 3)): 65% | macroscopic or microscopic effect of NO inhalation (healthy dogs): No macroscopic or microscopic effect

O=c1[nH]cc(F)c(=O)[nH]1 [5FU, 5-fluorouracil]
effect on CT26 cells (viability) (CT26 colon cancer cells; 1 μM 5FU alone, overnight incubation (FIG. 4)): little effect
